Laboratory results taken from patent US7087714B2, “Mu-Opiod receptor splice variant polypeptides” (Memorial Sloan-Kettering Cancer Center, priority 2001, dated 2006).

Columns and labels:
[1] = system: exon 11-like immunoreactivity (E11-LI); experiment: Immunohistochemical labeling (exon 11-like immunoreactivity) in striatum after antisense treatment; format: in vivo, mouse; conditions: 10 μg i.c.v. daily for 4 days, perfused on fifth day; p<0.05
exon 11-containing mRNA = experiment: RT-PCR of exon 11-containing mRNA in brains of mice given antisense i.c.v.; format: in vivo, mouse; conditions: 10 μg i.c.v. daily for 4 days, brain RNA on fifth day
MOR-1 gene = experiment: In vivo antisense mapping, radiant heat tailflick assay of opioid analgesia; parameters: species or system mice; conditions: 5 μg oligodeoxynucleotide on days 1, 3 and 5, tailflick on day 6

Substance | downregulation of immunohistochemical labeling in the striatum compared to the control group [1] | lowering of the levels of exon 11 expression (RT-PCR) (exon 11-containing mRNA) | effect on spinal (i.t.) M6G analgesia (MOR-1 gene) | effect on spinal (i.t.) morphine analgesia (MOR-1 gene) | effect on supraspinal (i.c.v.) M6G analgesia (MOR-1 gene) | effect on supraspinal (i.c.v.) morphine analgesia (MOR-1 gene) | effect on opioid (morphine or M6G) analgesia, mismatch control (MOR-1 gene)
antisense E11A: antisense oligodeoxynucleotide targeting exon 11: 5′GACAGTCACTGGTGCCTATGCAAT3′ (SEQ ID NO 48) (DNA, backbone not given here) | over 50% | approximately 40% |  |  |  |  | 
exon 1 probe: antisense probe targeting exon 1: 5′CGCCCCAGCCTCTTCCTCT3′ (SEQ ID NO 47) (listed as DNA, chemistry not given here) |  |  | inactive | not spinally | inactive | reduced | 
mismatch E11A: mismatch probe based upon the 11a antisense probe: 5′GACGATCACGTGTGCTCATGACAT3′ (SEQ ID NO 50) (listed as DNA, chemistry not given here) [reference compound] | without effect | inactive |  |  |  |  | inactivity
